Results published in PMC3872965 (Journal of immunology (Baltimore, Md. : 1950), 2013).

Test system: B*0702-transgenic mice
Conditions: mouse, in vivo, sc

RPRWLDARV was tested, and the “Average T cell response” value was 659 SFC/10^6 CD8^+.
